Laboratory results published in PubChem BioAssay AID248 (DTP/NCI, 2004).
Values joined by “and” are separate entries in the source; they are usually repeats but may differ in a detail not shown here. Identical values can stand only once. Inconclusive results and toxic doses are left out. Rule as the data show it: active = T/C of 150% or more; inactive = T/C below 125%.

System: L1210 leukemia ip in BDF1 mice, survival T/C
Assay: NCI In Vivo Anticancer Drug Screen. Data for tumor model L1210 Leukemia (intraperitoneal) in B6D2F1 (BDF1) mice
Conditions: endpoint: mean survival time, higher = longer survival
How it was run: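 Ratio derived from survival: compound-dosed mice over vehicle-dosed mice, all bearing a transplantable tumor.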

[1] = dose: 100.0 mg/kg/injection, schedule: Q04DX002 (ip), vehicle: Klucel (hydroxypropylcellulose) (HPC)
[2] = dose: 100.0 mg/kg/injection, schedule: Q04DX003 (ip), vehicle: saline with Tween-80
[3] = dose: 200.0 mg/kg/injection, schedule: Q04DX003 (ip), vehicle: saline with Tween-80
[4] = dose: 400.0 mg/kg/injection, schedule: Q04DX003 (ip), vehicle: saline with Tween-80
[5] = dose: 100.0 mg/kg/injection, schedule: Q01DX009 (ip), vehicle: saline with Tween-80
[6] = dose: 100.0 mg/kg/injection, schedule: Q04DX003 (ip), vehicle: saline
[7] = dose: 200.0 mg/kg/injection, schedule: Q04DX003 (ip), vehicle: saline
[8] = dose: 400.0 mg/kg/injection, schedule: Q04DX003 (ip), vehicle: saline

Measured: T/C

c1ccc(C2C(CN3CCCCCC3)C2c2ccccc2)cc1 (stereo not drawn)
inactive: dose: 12.5 mg/kg/injection, schedule: Q04DX002 (ip), vehicle: Klucel (hydroxypropylcellulose) (HPC) 88 % of control | dose: 25.0 mg/kg/injection, schedule: Q04DX002 (ip), vehicle: Klucel (hydroxypropylcellulose) (HPC) 95 % of control and 98 % of control | dose: 50.0 mg/kg/injection, schedule: Q04DX002 (ip), vehicle: Klucel (hydroxypropylcellulose) (HPC) 98 % of control and 101 % of control and 91 % of control | [1] 92 % of control

CCCSCC
inactive: [2] 93 % of control | [3] 91 % of control | [4] 101 % of control

C=CCC/C(=C/C(=O)OCC)OCC=C
inactive: dose: 50.0 mg/kg/injection, schedule: Q01DX009 (ip), vehicle: saline with Tween-80 107 % of control | [5] 114 % of control

CC1(c2ccco2)NC(=O)NC1=O (stereo not drawn)
inactive: dose: 100.0 mg/kg/injection, schedule: Q01DX009 (ip), vehicle: Klucel (hydroxypropylcellulose) (HPC) 94 % of control | [5] 91 % of control | [2] 111 % of control and 101 % of control | dose: 200.0 mg/kg/injection, schedule: Q01DX009 (ip), vehicle: Klucel (hydroxypropylcellulose) (HPC) 100 % of control | dose: 200.0 mg/kg/injection, schedule: Q01DX009 (ip), vehicle: saline with Tween-80 95 % of control | [3] 104 % of control and 114 % of control | dose: 400.0 mg/kg/injection, schedule: Q01DX009 (ip), vehicle: Klucel (hydroxypropylcellulose) (HPC) 105 % of control | dose: 400.0 mg/kg/injection, schedule: Q01DX009 (ip), vehicle: saline with Tween-80 98 % of control | [4] 111 % of control and 101 % of control

CCCCCCCCCCCCCCCCCCNC(=O)Nc1ccccc1OC
inactive: [1] 101 % of control | dose: 200.0 mg/kg/injection, schedule: Q04DX002 (ip), vehicle: Klucel (hydroxypropylcellulose) (HPC) 107 % of control | dose: 400.0 mg/kg/injection, schedule: Q04DX002 (ip), vehicle: Klucel (hydroxypropylcellulose) (HPC) 96 % of control

COC(=O)CCC(NC(=O)OCc1ccccc1)C(=O)O (stereo not drawn)
inactive: dose: 100.0 mg/kg/injection, schedule: Q04DX003 (ip), vehicle: Klucel (hydroxypropylcellulose) (HPC) 99 % of control | dose: 200.0 mg/kg/injection, schedule: Q04DX003 (ip), vehicle: Klucel (hydroxypropylcellulose) (HPC) 112 % of control

O=C1C(c2ccccc2)=C(N2CCCCC2)C(=O)C(c2ccccc2)=C1N1CCCCC1
inactive: dose: 100.0 mg/kg/injection, schedule: Q01DX001 (ip), vehicle: carboxymethylcellulose (CMC) 90 % of control | dose: 200.0 mg/kg/injection, schedule: Q01DX001 (ip), vehicle: carboxymethylcellulose (CMC) 90 % of control | dose: 400.0 mg/kg/injection, schedule: Q01DX001 (ip), vehicle: carboxymethylcellulose (CMC) 94 % of control

NP(Cl)(c1ccccc1)(c1ccccc1)c1ccccc1
inactive: dose: 0.2 mg/kg/injection, schedule: Q04DX003 (ip), vehicle: Klucel (hydroxypropylcellulose) (HPC) 96 % of control | dose: 0.39 mg/kg/injection, schedule: Q04DX003 (ip), vehicle: Klucel (hydroxypropylcellulose) (HPC) 99 % of control | dose: 0.78 mg/kg/injection, schedule: Q04DX003 (ip), vehicle: Klucel (hydroxypropylcellulose) (HPC) 97 % of control

NNC(=O)CCCCC(=O)NN
inactive: [6] 100 % of control | [7] 97 % of control | [8] 100 % of control

S=c1nc(-c2ccccc2)c(-c2ccccc2)n[nH]1
inactive: [6] 100 % of control | [7] 98 % of control | [8] 98 % of control

CCOCCOC(=O)c1ccc(C#N)cc1
inactive: dose: 100.0 mg/kg/injection, schedule: Q01DX001 (ip), vehicle: saline 100 % of control | dose: 200.0 mg/kg/injection, schedule: Q01DX001 (ip), vehicle: saline 97 % of control | dose: 400.0 mg/kg/injection, schedule: Q01DX001 (ip), vehicle: saline 97 % of control

CC1(C)C2CCC(C2)C12CC(F)(F)C(F)(F)S2 (stereo not drawn)
inactive: dose: 12.5 mg/kg/injection, schedule: Q01DX009 (ip), vehicle: saline with Tween-80 97 % of control | dose: 25.0 mg/kg/injection, schedule: Q01DX009 (ip), vehicle: saline with Tween-80 100 % of control | dose: 25.0 mg/kg/injection, schedule: Q04DX003 (ip), vehicle: saline with Tween-80 101 % of control | dose: 50.0 mg/kg/injection, schedule: Q04DX003 (ip), vehicle: saline with Tween-80 101 % of control | [2] 103 % of control
